assay: Human HepG2 cell viability assay in 384 well format; type: toxicity, cell-based; design: dose 125 nL, time 70.5 hour; cytotoxicity at 70.5 h: concentration not given beside the values; conditions: HepG2 cells, read-out: Inhibition

| Structure (SMILES) | cytotoxicity at 70.5 h [%] |
| --- | --- |
| CCc1cc(CNC(=O)N(C2CC2)C(C)c2ccco2)[nH]n1 (stereo not given) | -5.28 |
| O=C(CCn1ccc2ccccc21)N1CCN(Cc2cccnc2)CC1 | 17.7 |
| CCCC(=O)N(C)c1cccc2ncccc12 | -1.87 |
| Cc1ccnc(C(NC(=O)c2ccc(O)nc2C)C2CC2)n1 (stereo not given) | 16.3 |
| NC(=O)CN(CC1CCOC1)C1CC1 (stereo not given) | -2.08 |
| CN(c1ccc(CNC(=O)c2ccc(O)nc2)cc1)C1CCCCC1 | 0.503 |
| CN(CC(=O)Nc1ccccc1C(=O)NC1CC1)Cc1ccccc1Cl | 0.515 |
| COc1cc(C2(C(=O)NC3CCN(CC4CC4)CC3)CC2)ccc1C | -6 |
| O=C(CCc1ccc2c(c1)OCO2)Nc1cccnc1-n1cncn1 | -2.15 |
| Cn1ccc(C(=O)N2CCOC(c3ccccc3)C2)cc1=O (stereo not given) | -7.42 |
| N#Cc1cccnc1N1CCCN(C(=O)CCc2cccs2)CC1 | -4.16 |
| COc1cc(C2(C(=O)NC3CCN(C4CC4)CC3)CC2)ccc1C | -4.2 |
| Cn1ccc2c(C(=O)NCCCS(C)(=O)=O)cccc21 | 5.4 |
| O=C(Nc1ccc(Cl)cn1)C1CCN(CCc2ccccn2)CC1 | -1.68 |
| CC(C)(C)NC(=O)Cn1nc(C2CC2)cc(C(F)(F)F)c1=O | -1.18 |
| O=C(Nc1ccc(Cl)cn1)C1CCCN(CCc2ccccn2)C1 (stereo not given) | 14.5 |
| CN1CCCN(c2nc(C3CC3)ns2)CC1 | -3.92 |
| Cc1nc(C)n(CC2CN(CCc3ccccn3)CCO2)n1 (stereo not given) | -7.39 |
| Cc1ncncc1C(=O)N1CCCN(Cc2cnn(C(C)C)c2)CC1 | 8.58 |
| COc1c(C2CCCN2C(=O)c2cnn(C)c2C2CC2)c(C)nn1C (stereo not given) | -2.81 |
| COc1c(C2CCCN2C(=O)c2sccc2C#N)c(C)nn1C (stereo not given) | -5.44 |
| O=C(NCCCOCC1CCCO1)c1cccnc1N1CCOCC1 (stereo not given) | 36.7 |
| CC(C)CCC(=O)N1CCCC1c1nnc2n1CCCCC2 (stereo not given) | -6.64 |
| CCN(CC)C(CNS(=O)(=O)c1ccc(C(C)=O)cc1)c1ccco1 (stereo not given) | -3.55 |

| Structure (SMILES) | cytotoxicity at 70.5 h [%] |
| --- | --- |
| CCN(CC)C(CNC(=O)c1ccc(S(=O)(=O)NC)cc1)c1ccco1 (stereo not given) | 0.103 |
| NC(=O)c1ccc(CN2CCC(N3CCCCC3)CC2)cc1 | -1.57 |
| Cc1cc(C)n(CC2CN(Cc3ccc(C(N)=O)cc3)CCO2)n1 (stereo not given) | -4.76 |
| CCCC1CCCN(C(=O)Nc2ccc(F)c(C(N)=O)c2)CC1 (stereo not given) | -1.9 |
| c1nc(N2CCOC(Cn3cncn3)C2)c2sccc2n1 (stereo not given) | 29 |
| CN1CCC(NC(=O)CC2CN(Cc3ccccc3)CCO2)CC1 (stereo not given) | -5.42 |
| Cc1cnn(CC2CCCCN2C(=O)Cn2nc(C)c(Cl)c2C)c1 (stereo not given) | -4.01 |
| CNc1cc(N2CCCC2CNCc2cccc(C(N)=O)c2)ncn1 (stereo not given) | -2.53 |
| Cc1noc(Cl)c1CC(=O)N1CCCC1Cn1cccn1 (stereo not given) | 2.85 |
| Cc1cc(C)n(C2CCCN(C(=O)c3cccc(F)c3F)C2)n1 (stereo not given) | 38.7 |
| CNc1cc(N2CCCC2CNCc2cccnc2)ncn1 (stereo not given) | 4.98 |
| Cc1cc(C)n(C2CCCN(C(=O)c3ccc(N(C)C)nn3)C2)n1 (stereo not given) | -4.23 |
| CNc1cc(N2CCCC2CNCc2cccs2)ncn1 (stereo not given) | -1.51 |
| CS(=O)(=O)CCn1ccc(NC(=O)Cc2cccc(Cl)c2)n1 | -0.645 |
| O=C(CC1CN(Cc2ccccc2)CCO1)NC1CCSCC1 (stereo not given) | 3.03 |
| Cc1nc(C)n(C2CCCN(C(=O)Cc3ccc4c(c3)CCC4)C2)n1 (stereo not given) | -3.72 |
| CC(C)OCCCNC(=O)c1cccnc1N1CCOCC1 | 39.8 |
| CNc1cc(N2CCCC2CNCc2ccco2)ncn1 (stereo not given) | -1.02 |
| Cc1cc(C)n(CC2CN(Cc3cccnc3)CCO2)n1 (stereo not given) | 3.35 |
| CCn1ccnc1CN1CCN(CCc2ccccn2)CC1C (stereo not given) | -3.46 |
| Cc1nn(C)c(C)c1CC(=O)N1CCCC1Cn1cccn1 (stereo not given) | -5 |
| Cc1nc(C)n(C2CCCN(C(=O)CCc3cn(C)nc3C)C2)n1 (stereo not given) | -0.365 |
| Cc1cc(C)n(C2CCCN(C(=O)c3ccc(F)c(F)c3)C2)n1 (stereo not given) | 9.19 |
| CSCCC(=O)N1CCCC1c1nnc2n1CCCCC2 (stereo not given) | -3.4 |

| Structure (SMILES) | cytotoxicity at 70.5 h [%] |
| --- | --- |
| O=C(CN1CCCC(CO)C1)NCCOc1cccc(Cl)c1 (stereo not given) | 27.5 |
| O=C(NCCSCc1ccc(Br)s1)C1CCCN(C(=O)c2cccs2)C1 (stereo not given) | -8.75 |
| CCCc1nc(C)c(C(=O)NCC2CCN(C3CC3)C2)s1 (stereo not given) | 23.6 |
| Cc1sc2nc(C(F)(F)F)nc(N3CCC(NS(C)(=O)=O)CC3)c2c1C | -5.38 |
| CC(=O)N1CCN(c2nc(C(F)(F)F)nc3sc(C)c(C)c23)CC1 | -9.75 |
| O=C(c1c[nH]c(=O)[nH]1)N1CCc2ccccc21 | -4.03 |
| CC(NCc1cccnc1)c1cc2c(cc1Br)OCCO2 (stereo not given) | -6.12 |
| Cc1ccc(CN2CCOCC2)cc1NC(=O)c1ccsc1 | -9.12 |
| N#Cc1cccc(C(=O)NS(=O)(=O)c2ccc(C#N)c(Cl)c2)c1 | 27.3 |
| COc1ccsc1C(=O)Nc1cc(CN2CCOCC2)ccc1C | 0.784 |
| Clc1ccc(NCc2nnc(C3CC3)o2)cc1Cl | 24.8 |
| CC(C)(C)c1noc(CNc2ccccc2N2CCC(O)CC2)n1 | -8.28 |
| O=C(NS(=O)(=O)c1ccc(F)cc1)C1CCOc2ccccc21 (stereo not given) | -3.97 |
| FC(F)(F)Sc1ccc(NCc2nnc(C3CC3)o2)cc1 | 1.88 |
| COc1ccnc(NC(=O)c2ccsc2)c1 | -10.1 |
| COCCCN(Cc1ccncc1)C(=O)CSc1ccc(F)cc1 | -5.19 |
| CCOC(C)c1noc(CN2CCN(CC3CCCC3)CC2)n1 (stereo not given) | -6.48 |
| CCOC(C)c1noc(CN2CCN(c3nnc(C)s3)CC2)n1 (stereo not given) | -4.45 |
| O=C(O)[C@H]1CCCN1CCOc1cccc(Cl)c1 | -5.33 |
| CCOC(C)c1noc(CN2CCNCC2)n1 (stereo not given) | 13.6 |
| COC(C)c1noc(CN2CCCNCC2)n1 (stereo not given) | -10 |
| O=C(Cc1cccc(Cl)c1)Nc1cnccc1SCCCO | -6.16 |
| CC(NCCN1CCN(C(=O)C2CCCC2)CC1)c1cnn(C)c1 (stereo not given) | 5.6 |
| Cc1ccc(C)c(CC(=O)Nc2cnccc2SCCCO)c1 | 23.5 |

| Structure (SMILES) | cytotoxicity at 70.5 h [%] |
| --- | --- |
| C=C(C)CN(CC)S(=O)(=O)c1ccccc1C#N | -7.47 |
| CCN(CC(=O)NC)C(=O)c1cc(-c2cccc(Cl)c2)no1 | -2.85 |
| Cc1cccc(N(C)Cc2nc3c(cnn3C)c(=O)[nH]2)c1C | -10 |
| CCN(Cc1nc2c(cnn2C)c(=O)[nH]1)c1ccccc1C | -11.2 |
| O=C(c1ccc(=O)[nH]n1)N1CCCC1CCc1ccccc1 (stereo not given) | -11.9 |
| CCOC(=O)c1ccc(Nc2ccc(OC)c(N3CCCC3=O)c2)nc1 | -14.4 |
| CCN(Cc1nc2c(cnn2C)c(=O)[nH]1)c1cc(C)ccc1C | -15.9 |
| O=C(C1CCCN1c1ncnc2ccsc12)N1CCSCC1 (stereo not given) | -9.24 |
| Cn1cnc2c1CCN(Cc1nc(-c3ccco3)no1)C2 | 8.47 |
| O=C(c1ccc(-n2ccnc2)nn1)N1CCCCC1Cn1cccn1 (stereo not given) | -5.22 |
| CC(CO)N1CCN(C(=O)OC(C)(C)C)CC1 (stereo not given) | -6.8 |
| Cc1cccc(-c2nc(CN3CCn4c(nnc4C4CC4)C3)no2)c1 | -12.1 |
| COc1ccc(Nc2ncccc2C#N)cc1N1CCCC1=O | 5.71 |
| Cc1nc(CN2CCCN(Cc3nc4c(F)cccc4[nH]3)CC2)no1 | -10.4 |
| Cc1nc(C2CCCN2CCCn2c(=O)oc3ccccc32)no1 (stereo not given) | 19.1 |
| CC(C)=CCN1CCN(C(=O)C2CC2)CC1 | 2.37 |
| O=C(Nc1cccnc1-n1cccn1)N1CCCC(N2CCCC2)C1 (stereo not given) | -4.62 |
| CN(C)c1ccc(CNCc2ccc(N3CCOCC3)cc2)cn1 | -9.01 |
| Cc1cc(N(C)CCOc2ccccc2F)nc(N)n1 | -2.43 |
| COc1ccccc1OCCN(C)c1cc(C)nc(N)n1 | 18.7 |
| CN(C)c1cc(CNCc2ccc(N3CCOCC3)cc2)ccn1 | -6.16 |
| CN(C)c1ncccc1CNCc1ccc(N2CCOCC2)cc1 | 18.9 |
| c1cnn(C2CN(c3ncnc4[nH]ccc34)C2)c1 | -0.76 |
| Cc1cc(C)n(C2CN(c3ncnc4[nH]ccc34)C2)n1 | -3.24 |

| Structure (SMILES) | cytotoxicity at 70.5 h [%] |
| --- | --- |
| Cc1cnn(C2CN(c3ncnc4[nH]ccc34)C2)c1 | -3.84 |
| CC(C)CCN(C(=O)CCn1cc(S(N)(=O)=O)cn1)C1CC1 | -1.68 |
| Cc1ccccc1N(CC(=O)NCCc1nnc2n1CCC2)S(C)(=O)=O | -4.09 |
| Cn1cnc2c1CCN(Cc1ccc(Cl)c3cccnc13)C2 | 15.6 |
| Cn1nnnc1SC1CCN(c2ccccc2Cl)C1=O (stereo not given) | -2.66 |
| Cn1cc(C2CCCN2C(=O)Cn2c(=O)oc3ccccc32)cn1 (stereo not given) | -4.25 |
| O=C1C(Sc2nnnn2C2CC2)CCN1c1ccccc1F (stereo not given) | -3.39 |
| Cn1cnc2c1CCN(Cc1c(Cl)ccc3cccnc13)C2 | 0.125 |
| CS(=O)(=O)N(Cc1ccon1)c1cccc(Br)c1 | -1.5 |
| Cc1ccc(CN(C)c2cc(N3CCCC3CO)ncn2)s1 (stereo not given) | -4.83 |
| Cn1nnnc1SC1CCCN(c2ccccc2Cl)C1=O (stereo not given) | -1.81 |
| CN(C)c1ccc(C(=O)NCc2ccc(N3CCOCC3)cc2)cn1 | 14.5 |
| CCc1nnc(C(C)N2CCc3cncnc3C2)o1 (stereo not given) | -3.77 |
| Cc1cc(CNC2(c3ccc(Cl)cc3)CC2)no1 | -2.02 |
| CC(=O)N1CCN(CC=C(C)C)CC1 | -6.01 |
| CC(c1nnc(-c2ccccc2)o1)N1CCc2cncnc2C1 (stereo not given) | -4.24 |
| Cc1ccsc1CN(C)c1cc(N2CCCC2CO)ncn1 (stereo not given) | -3.13 |
| COc1cccc2c1N(C(=O)c1ccc(C)nc1)CCC2 | 4.1 |
| O=C(c1ccc2c(c1)CCO2)N1CCN(c2ncccn2)CC1 | 2.69 |
| CCCn1ccnc1SCCNS(=O)(=O)c1ccccc1 | -1.16 |
| CCN(Cc1noc(C(C)C)n1)Cc1ccc(C#N)cc1F | 27.6 |
| N#Cc1c(Cl)nsc1N1CCN(CC2CC2)CC1 | 2.5 |
| COc1ccc(C)c2c1N(C(=O)c1cnc3onc(C)c3c1)CCC2 | 2.65 |
| CN(C)c1ccc(CNCc2cnc(N3CCOCC3)nc2)cn1 | 2.93 |
